Experimental data: patent US10456407B2, “Combination therapy for treating cancer” (Epizyme, Inc., priority 2015, dated 2019)
Values joined by “and” are separate entries in the source; they are usually repeats but may differ in a detail not shown here. Equal values may be shown once.

System: DOHH2 cells
Test: RT2 Glucocorticoid signaling PCR array, DOHH2 cell line (Table 4b)
Type: cell-based
Details: DOHH2, 4 days

## C[C@]12C=CC(=O)C=C1CC[C@@H]1[C@@H]2[C@@H](O)C[C@@]2(C)[C@H]1CC[C@]2(O)C(=O)CO [Prednisolone, prednisolone]
  ACTB Ct Values: 14.721
  ADARB1 Ct Values: 33.560
  AFF1 Ct Values: 23.992
  AK2 Ct Values: 20.262
  AMPD3 Ct Values: 27.535
  ANGPTL4 Ct Values: 31.538
  ANXA4 Ct Values: 24.997
  ARID68 Ct Values: 23.885
  ASPH Ct Values: 23.369
  ATF4 Ct Values: 19.313
  B2M Ct Values: 18.884
  BCL6 Ct Values: 21.801
  BMPER Ct Values: 39.378
  CEBPA Ct Values: 32.188
  CEBPB Ct Values: 24.317
  COL4A2 Ct Values: 38.993
  CREB1 Ct Values: 22.890
  CREB3 Ct Values: 24.865
  CREB3L4 Ct Values: 24.616
  CTGF Ct Values: 33.728
  CYB561 Ct Values: 39.582
  DDIT4 Ct Values: 24.105
  DUSP1 Ct Values: 27.866
  EDN1 Ct Values: 32.263
  EHD3 Ct Values: 31.098
  ERRFI1 Ct Values: 32.635
  FK8PS Ct Values: 20.912
  FOSL2 Ct Values: 31.543
  GAPDH Ct Values: 16.551
  GDPD1 Ct Values: 27.884
  GHRHR Ct Values: 36.095
  GLUL Ct Values: 34.574
  GOT1 Ct Values: 23.532
  H6PD Ct Values: 24.696
  HNRPLL Ct Values: 33.284
  HPRT1 Ct Values: 21.777
  IL1RN Ct Values: 33.560
  IL6 Ct Values: 34.758
  KLF9 Ct Values: 28.547
  KLF13 Ct Values: 22.546
  LOX Ct Values: 34.158
  MERTK Ct Values: 32.892
  NFKBIA Ct Values: 22.830
  NR3C1 Ct Values: 22.794
  PDCD7 Ct Values: 23.552
  PDGFRB Ct Values: 34.934
  PDP1 Ct Values: 25.682
  PER1 Ct Values: 25.142
  PER2 Ct Values: 24.159
  PIK3R1 Ct Values: 23.850
  PLD1 Ct Values: 37.120
  PLEKHF1 Ct Values: 29.414
  POU2F1 Ct Values: 24.648
  POU2F2 Ct Values: 22.489
  RASA3 Ct Values: 27.803
  RGS2 Ct Values: 25.514
  RHOB Ct Values: 33.162
  RPLP0 Ct Values: 15.128
  SESN1 Ct Values: 22.839
  SGK1 Ct Values: 29.628
  SLC10A6 Ct Values: 36.176
  SLC19A2 Ct Values: 25.455
  SLC22A5 Ct Values: 28.915
  SNTA1 Ct Values: 25.124
  SPHK1 Ct Values: 29.971
  SPSB1 Ct Values: 26.911
  STAT5A Ct Values: 23.565
  STAT5B Ct Values: 22.632
  TBL1XR1 Ct Values: 21.304
  TNF Ct Values: 31.956
  TSC22D3 Ct Values: 23.310
  USP2 Ct Values: 23.501
  USPS4 Ct Values: 26.683
  VDR Ct Values: 26.847
  VLDLR Ct Values: 28.584
  ZFP36 Ct Values: 24.270
  ZHX3 Ct Values: 24.418
  ZNF281 Ct Values: 23.828
Array control, three lines
  PPC Ct Values: 18.684 and 18.699 and 19.076
  RTC Ct Values: 21.449 and 21.464 and 21.483
Normalized to B2M
  ADARB1 ΔCT (B2M): 14.676
  AFF1 ΔCT (B2M): 5.108
  AK2 ΔCT (B2M): 1.378
  AMPD3 ΔCT (B2M): 8.651
  ANGPTL4 ΔCT (B2M): 12.654
  ANXA4 ΔCT (B2M): 6.113
  ARID68 ΔCT (B2M): 5.001
  ASPH ΔCT (B2M): 4.485
  ATF4 ΔCT (B2M): 0.429
  B2M ΔCT (B2M): 0.000
  BCL6 ΔCT (B2M): 2.917
  BMPER ΔCT (B2M): 20.494
  CEBPA ΔCT (B2M): 13.304
  CEBPB ΔCT (B2M): 5.433
  COL4A2 ΔCT (B2M): 20.109
  CREB1 ΔCT (B2M): 4.006
  CREB3L4 ΔCT (B2M): 5.732
  CREB3 ΔCT (B2M): 5.981
  CTGF ΔCT (B2M): 14.844
  CYB561 ΔCT (B2M): 20.698
  DDIT4 ΔCT (B2M): 5.221
  DUSP1 ΔCT (B2M): 8.982
  EDN1 ΔCT (B2M): 13.379
  EHD3 ΔCT (B2M): 12.214
  ERRFI1 ΔCT (B2M): 13.751
  FK8PS ΔCT (B2M): 2.028
  FOSL2 ΔCT (B2M): 12.659
  GAPDH ΔCT (B2M): −2.333
  GDPD1 ΔCT (B2M): 9.000
  GHRHR ΔCT (B2M): 17.211
  GLUL ΔCT (B2M): 15.690
  GOT1 ΔCT (B2M): 4.648
  H6PD ΔCT (B2M): 6.085
  HNRPLL ΔCT (B2M): 14.400
  HPRT1 ΔCT (B2M): 2.893
  IL1RN ΔCT (B2M): 14.676
  IL6 ΔCT (B2M): 19.457
  KLF9 ΔCT (B2M): 9.663
  KLF13 ΔCT (B2M): 3.662
  LOX ΔCT (B2M): 15.274
  MERTK ΔCT (B2M): 14.008
  NFKBIA ΔCT (B2M): 3.946
  NR3C1 ΔCT (B2M): 3.910
  PDCD7 ΔCT (B2M): 4.668
  PDGFRB ΔCT (B2M): 16.050
  PDP1 ΔCT (B2M): 6.798
  PER1 ΔCT (B2M): 6.258
  PER2 ΔCT (B2M): 5.275
  PIK3R1 ΔCT (B2M): 4.966
  PLD1 ΔCT (B2M): 18.236
  PLEKHF1 ΔCT (B2M): 10.530
  POU2F1 ΔCT (B2M): 5.764
  POU2F2 ΔCT (B2M): 3.605
  RASA3 ΔCT (B2M): 8.919
  RGS2 ΔCT (B2M): 6.630
  RHOB ΔCT (B2M): 14.278
  RPLP0 ΔCT (B2M): −3.756
  SESN1 ΔCT (B2M): 3.955
  SGK1 ΔCT (B2M): 10.744
  SLC10A6 ΔCT (B2M): 17.292
  SLC19A2 ΔCT (B2M): 6.571
  SLC22A5 ΔCT (B2M): 10.031
  SNTA1 ΔCT (B2M): 6.240
  SPHK1 ΔCT (B2M): 11.087
  SPSB1 ΔCT (B2M): 8.027
  STAT5A ΔCT (B2M): 5.001
  STAT5B ΔCT (B2M): 3.748
  TBL1XR1 ΔCT (B2M): 2.420
  TNF ΔCT (B2M): 13.072
  TSC22D3 ΔCT (B2M): 4.426
  USP2 ΔCT (B2M): 4.617
  USPS4 ΔCT (B2M): 7.799
  VDR ΔCT (B2M): 7.963
  VLDLR ΔCT (B2M): 9.700
  ZFP36 ΔCT (B2M): 5.386
  ZHX3 ΔCT (B2M): 5.534
  ZNF281 ΔCT (B2M): 4.944
Normalized to B2M, array control, three lines
  RTC ΔCT (B2M): 2.565 and 2.580 and 2.599
Vs DMSO
  ADARB1 ΔΔCT: 1.867
  AFF1 ΔΔCT: −0.567
  AK2 ΔΔCT: 0.053
  AMPD3 ΔΔCT: 1.259
  ANGPTL4 ΔΔCT: 0.529
  ANXA4 ΔΔCT: 0.305
  ARID68 ΔΔCT: 0.129
  ASPH ΔΔCT: 0.524
  ATF4 ΔΔCT: 0.282
  BCL6 ΔΔCT: 0.397
  BMPER ΔΔCT: 1.466
  CEBPA ΔΔCT: −2.341
  CEBPB ΔΔCT: 0.531
  COL4A2 ΔΔCT: 6.804
  CREB1 ΔΔCT: 0.085
  CREB3L4 ΔΔCT: 0.336
  CREB3 ΔΔCT: 0.061
  CTGF ΔΔCT: 0.142
  CYB561 ΔΔCT: 1.917
  DDIT4 ΔΔCT: 0.296
  DUSP1 ΔΔCT: 0.387
  EDN1 ΔΔCT: 1.155
  EHD3 ΔΔCT: −1.092
  ERRFI1 ΔΔCT: 0.235
  FK8PS ΔΔCT: −0.948
  FOSL2 ΔΔCT: −0.099
  GDPD1 ΔΔCT: 0.477
  GHRHR ΔΔCT: −1.464
  GLUL ΔΔCT: −1.434
  GOT1 ΔΔCT: 0.230
  H6PD ΔΔCT: 0.377
  HNRPLL ΔΔCT: 3.085
  KLF9 ΔΔCT: −0.019
  KLF13 ΔΔCT: −0.280
  LOX ΔΔCT: 0.721
  MERTK ΔΔCT: 0.020
  NFKBIA ΔΔCT: 0.064
  NR3C1 ΔΔCT: 0.317
  PDCD7 ΔΔCT: 0.021
  PDP1 ΔΔCT: −0.056
  PER1 ΔΔCT: 0.323
  PER2 ΔΔCT: −0.358
  PIK3R1 ΔΔCT: −0.202
  PLD1 ΔΔCT: 0.207
  PLEKHF1 ΔΔCT: −0.347
  POU2F1 ΔΔCT: 0.395
  POU2F2 ΔΔCT: 0.145
  RASA3 ΔΔCT: 0.776
  RGS2 ΔΔCT: 0.849
  RHOB ΔΔCT: 0.626
  SESN1 ΔΔCT: −1.262
  SGK1 ΔΔCT: 2.120
  SLC10A6 ΔΔCT: 1.818
  SLC19A2 ΔΔCT: −0.020
  SLC22A5 ΔΔCT: 0.648
  SNTA1 ΔΔCT: 0.665
  SPHK1 ΔΔCT: −0.581
  SPSB1 ΔΔCT: −0.074
  STAT5A ΔΔCT: −0.227
  STAT5B ΔΔCT: 0.254
  TBL1XR1 ΔΔCT: 0.032
  TNF ΔΔCT: 0.753
  TSC22D3 ΔΔCT: −1.741
  USP2 ΔΔCT: −0.478
  USPS4 ΔΔCT: 0.209
  VDR ΔΔCT: −0.434
  VLDLR ΔΔCT: 1.543
  ZFP36 ΔΔCT: 0.225
  ZHX3 ΔΔCT: −0.657
  ZNF281 ΔΔCT: −0.113
